Data set [1] deals with 92.1 uveal melanoma cell line (heterozygous GNAQ Q209L). The experiment in a line: Cell proliferation assay (resazurin cell viability), 92.1 cell line. It is filed as cell-based. The gist of the method: (§1)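 Cells seeded the night before, then treated 96 h at 37 °C in RPMI/10% FCS (A375 in DMEM/10% FCS); compounds 260 nM to 0.036 nM in ⅓ dilution steps, one compound 10000 nM to 1.52 nM. Viability read by resazurin addition after 96 h.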
(Alamar Blue is a resazurin reagent that responds to reducing activity.)

Data set [2] deals with MP41 uveal melanoma cell line (heterozygous GNA11 Q209L). Kind of data set: Cell proliferation assay (resazurin cell viability), MP41 cell line. It is filed as cell-based. The gist of the method: as §1
Data set [3] deals with A375 skin melanoma cell line (homozygous BRAF V600E). The experiment in a line: Cell proliferation assay (resazurin cell viability), A375 cell line. Format: cell-based. The gist of the method:
as §1

Data set [4] relates to SK-MEL-30 skin melanoma cell line (heterozygous NRAS Q61K). The experiment in a line: Cell proliferation assay (resazurin cell viability), SK-MEL-30 cell line. Format: cell-based. The gist of the method:
as §1

Data set [5] has as its system 92.1 and MP41 cell lines (GNAQ/GNA11 mutant uveal melanoma). Kind of data set: Cell proliferation assays, potency ranking over both uveal melanoma lines. It is filed as cell-based. The note with it: 92.1 and MP41 cell lines. From the text:
The selective antiproliferative profile of the chromodepsins against GNAQ/GNA11 mutant cell lines is confirmed by the lack of activity against the A375 and SK MEL 30 cell lines that are independent from GNAQ/GNA11 signaling. The potency ranking using the 92.1 and MP41 cell lines is in good agreement with the previously SAR studies. […] These findings are in line with a recent report from Voss et al., highlighting the importance of the “lipophilic anchors” of compound (A1) at the residues varied in compounds 2 and 3, in context of binding kinetics and prolonged residence time on the target proteins. The retained potency of compound 4 indicates a promising exit vector for potential synthetic or biosynthetic modifications of the scaffold. […] The linearized depsipeptides compounds 5-7 lack any antiproliferative activity. In this experimental setup, the cellular permeability of the compounds was a crucial factor contributing to the observed antiproliferative potency. Therefore, all compounds were characterized in a low efflux MCDK assay and determined their exposed polar surface areas (EPSA) in order to assess their passive cellular permeabilities. All macrocyclic chromodepsins that feature the N acyl Hle side chain show similar results concerning their % fraction absorbed (% FA; average ˜60% FA+20%) and EPSA values.
Cell Proliferation Assays with Chromodepsins (compounds (A1) and 2-15): Cell line descriptions: 92.1—uveal melanoma cell line, derived from primary tumor, harboring heterozygous GNAQ Q209L mutation. Purchased from Sigma Aldrich. MP41 (CRL-3297) -uveal melanoma cell line, derived from primary tumor, harboring heterozygous GNA11 Q209L mutation. Purchased from ATCC. A375—skin melanoma cell line, harboring homozygous BRAF V600E mutation. Origin: Cancer Cell Line Encyclopedia (CCLE). SK-MEL-30—skin melanoma cell line, harboring heterozygous NRAS Q61K mutation. Origin: CCLE.
Cells were cultured in 96-well plates in a total volume of 100 μL at 37° C., 5% CO2 and 95% relative humidity. All cell lines were cultured in RPMI Medium (RPMI 1640 w/o L-glutamine, Bioconcept ref. 1-41F01-I) except A375, DMEM medium (DMEM high glucose (4.5 g/L), Bioconcept, ref. 1-26F01-I), and supplemented with 10% FCS (Bioconcept, ref. 2-01F30-I). Two to three thousand cells were seeded in 96-well plates per well the night before they were treated with compounds (concentration range: from 260 nM to 0.036 nM with ⅓ dilution steps; for 7 the concentration range was increased from 10000 nM to 1.52 nM with ⅓ dilution steps). Cell viability was measured by addition of 10 ul of resazurin per well after 96 hours of treatment. Results were analyzed and plotted using GraphPad Prism 9.0.1.

For a further data set, the system named is MDCK-LE monolayers. The experiment in a line: Cell-based transwell assay with MDCK-low efflux monolayers (passive permeability). Format: in vitro ADME. On the procedure: Cell-based transwell assays with MDCK-low efflux monolayers: Compounds (A1) and 2-15 were tested in MDCK cell sub-clones with low effluxt ransporter activity (MDCK-LE) in order to determine their passive permeability. The incubations were performed at a contract research organization as described previously.

Data set [6] can be described thus: EPSA determination by supercritical fluid chromatography. Format: physicochemical. Put shortly: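 SFC on a Chirex 3014 column ([…], 3×100 mm, 100 Å). Gradient runs linearly from 5% to 60% methanol containing 20 mM ammonium formate, in scCO2, over 4.5 min.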
A further data set concerns Gαq proteins. The note with it: as has been reported; dynamic mass redistribution; cited from earlier work.
The mark [7] stands for this setting: versus macrocyclic chromodepsins with N-acyl-Hle side chain.

Read-outs that look alike come from different tables or passages of the source. Starred links: 1 amine or outer side, 2 acyl side, 3 side chain; linkers in the order of their positions; H or OH if unused. Positions of bridges follow the written chain, without caps; N, C: chain ends. Non-standard residues stand in square brackets, D forms with d. Residues, ends and D or L forms follow the SMILES beside them. ξ: configuration not given here. X3 = CC(C)C(O[*:3])C(N[*:1])C(=O)[*:2]; ξLeu(3ξ-OH) = CC(C)C(O)C(N)C(=O)O; PhLac = O=C(O)[CH](O)Cc1ccccc1; NMeT = CN[CH](C(=O)O)[CH](C)O; NMeA = CN[CH](C)C(=O)O; NMeDha = C=C(NC)C(=O)O

One may read the GI50 as the concentration at which growth is held to half of that of the control.

As to `C=C1C(=O)NC(C)C(=O)N(C)C(C)C(=O)NC(C(O)C(C)C)C(=O)N(C)C(C(C)OC)C(=O)OC(C(C)C)C(NC(C)=O)C(=O)OC(Cc2ccccc2)C(=O)N1C` (stereo not drawn) [Compound 12] (Ac-[X3][PhLac][NMeDha]A[NMeA][ξLeu(3ξ-OH)][NMeT](Me); ester 1-C; configuration not given here), the concentration for 50% growth inhibition (GI50) in data set [1] (92.1 (GNAQ Q209L), 96 hours of treatment, read-out: GI50 by cell line, 92.1) came out at 1740 nM; in data set [1] (92.1 cell line, average of Rep. 1 and 2, read-out: GI50 92.1 Average), 1740 nM; in data set [1] (92.1 cell line, replicate 1, read-out: GI50 92.1 Rep. 1), 1130 nM; in data set [1] (92.1 cell line, replicate 2, read-out: GI50 92.1 Rep. 2), 2350 nM; in data set [2] (MP41 (GNA11 Q209L), 96 hours of treatment, read-out: GI50 by cell line, MP41) it was 1180 nM; in data set [2] (MP41 cell line, average of Rep. 1 and 2, read-out: GI50 MP41 Average) it was 1180 nM. The GI50 in data set [2] (MP41 cell line, replicate 1, read-out: GI50 MP41 Rep. 1) was 994 nM; in data set [2] (MP41 cell line, replicate 2, read-out: GI50 MP41 Rep. 2), 1350 nM; in data set [3] (A375 (GNAQ/11 wild type), 96 hours of treatment, read-out: GI50 by cell line, A375), above 10000 nM; in data set [3] (A375 cell line, average of Rep. 1 and 2, read-out: GI50 A375 Average), above 10000 nM; in data set [3] (A375 cell line, replicate 1, read-out: GI50 A375 Rep. 1), above 10000 nM; in data set [3] (A375 cell line, replicate 2, read-out: GI50 A375 Rep. 2), above 10000 nM. Also, the concentration for 50% growth inhibition (GI50) was above 10000 nM in data set [4] (SK-MEL-30 (GNAQ/11 wild type), 96 hours of treatment, read-out: GI50 by cell line, SK-MEL-30); above 10000 nM in data set [4] (SK-MEL-30 cell line, average of Rep. 1 and 2, read-out: GI50 SK-MEL-30 Average); above 10000 nM in data set [4] (SK-MEL-30 cell line, replicate 1, read-out: GI50 SK-MEL-30 Rep. 1); above 10000 nM in data set [4] (SK-MEL-30 cell line, replicate 2, read-out: GI50 SK-MEL-30 Rep. 2). Besides, the “loss of potency compared to compound (A1) (growth inhibition)” value in data set [5] is listed as above 3.000 fold. The “% Fraction absorbed” value in the data set on MDCK-LE monolayers (MDCK-LE monolayers) came to 9.9%. Moreover, the “% Recovery” value with MDCK-LE monolayers (MDCK-LE monolayers) was 83%. Further, in the data set with MDCK-LE monolayers (MDCK-LE monolayers), the “Papp A − B” value was determined as 0.55 ×10⁻⁶ cm/s. For the same compound, the “reduction in % FA” value in the data set with MDCK-LE monolayers (setting [7]) is listed as around 5 fold. The compound further came in with an EPSA in data set [6] (modified EPSA method, SFC) of 106 A^2. Also, in data set [6] (setting [7]), the “change in EPSA (in words)” value was “slight changes”. In addition, the “fold change compared to compound (A1), inhibition of Gαq proteins” value in the data set on Gαq proteins is given as 16 fold.
